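Protocol summary: plate cells (96-well), add compound at 5 concentrations, incubate 48 h, interpolate endpoints linearly. GI50 is the concentration that inhibits growth by half.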 Activity calls are given as the source filed them. Rule as the data show it: active = GI50 up to about 1.1 µM and inactive = higher.
How the values were obtained:
Assay in all cases: inhibition of tumour cell growth, NCI panel, 48 h
[1] = system: A549
[2] = system: COLO 205
[3] = system: EKVX
[4] = system: HCC 2998
[5] = system: HT-29
[6] = system: K562
[7] = system: LOX IMVI
[8] = system: NCI-H226
[9] = system: NCI-H460
[10] = system: NCI-H522
[11] = system: OVCAR-4
[12] = system: OVCAR-5
[13] = system: OVCAR-8
[14] = system: RXF 393
[15] = system: SF-539
[16] = system: SK-MEL-28
[17] = system: SK-OV-3
[18] = system: SNB-75
[19] = system: U-251
[20] = system: UO-31

Measured: GI50

CC(C)=CCc1c(O)ccc2c1OC1c3ccc(O)c(CC=C(C)C)c3OCC21 (stereo not given)
inactive: [1] 7.94 µM | [2] 17.3 µM | [3] 5.62 µM | [4] 13.2 µM | [5] > 44.4 µM | [6] 4.42 µM | [7] 6.81 µM | [8] 14 µM | [9] 5.15 µM | [10] 11.3 µM | [11] 11.2 µM | [12] 13.9 µM | [13] 8.22 µM | [14] 8.09 µM | [15] 10.5 µM | [16] 13.4 µM | [17] 19.2 µM | [18] 15.9 µM | [19] 7.67 µM | [20] 11.7 µM

O=C(O)CCC(NC(=O)c1ccc(Nc2cnc3cc(C(F)(F)F)ccc3n2)cc1)C(=O)O (stereo not given)
inactive: [1] > 100 µM | [2] > 100 µM | [3] > 100 µM | [4] > 100 µM | [5] > 100 µM | [6] > 100 µM | [7] > 100 µM | [8] > 100 µM | [9] > 100 µM | [10] > 100 µM | [11] > 100 µM | [12] > 100 µM | [13] > 100 µM | [14] > 100 µM | [15] > 100 µM | [16] > 100 µM | [17] > 100 µM | [18] > 35.6 µM | [19] > 100 µM | [20] > 100 µM

Cc1c(C2=NN=C(/N=N/c3c(O)cccc3O)/C2=C/c2ccccc2)c(=O)n(-c2ccccc2)n1C
inactive: [1] > 100 µM | [2] > 100 µM | [3] > 100 µM | [4] > 100 µM | [5] > 100 µM | [6] > 100 µM | [7] > 100 µM | [8] > 100 µM | [9] > 100 µM | [10] > 100 µM | [11] > 100 µM | [12] > 100 µM | [13] > 100 µM | [14] > 100 µM | [15] > 100 µM | [16] > 100 µM | [17] > 100 µM | [18] > 100 µM | [19] > 100 µM | [20] > 100 µM

CC1(C)S[C@@H]2[C@H](NC(=O)CCC[C@@H](N)C(=O)O)C(=O)N2[C@H]1C(=O)O [ADICILLIN]
inactive: [1] > 50 µM | [2] > 50 µM | [3] > 50 µM | [4] > 50 µM | [5] > 50 µM | [6] > 50 µM | [7] > 50 µM | [8] > 50 µM | [9] > 50 µM | [10] > 50 µM | [11] > 50 µM | [12] 23.3 µM | [13] > 19.9 µM | [14] > 50 µM | [15] > 50 µM | [16] > 50 µM | [17] > 41 µM | [18] > 50 µM | [19] > 25.6 µM | [20] > 50 µM

From ChEMBL document CHEMBL1201862, “PubChem BioAssay data set” (2004)
